Assay: Relative solubility of the physical forms
Format: physicochemical
Conditions: monohydrate as impurity in the anhydrous form

- solubility compared with the anhydrous form: less soluble
SMILES: CC(O)C(=O)O.CN1CCN(c2ccc3nc(-c4c(N)c5c(F)cccc5[nH]c4=O)[nH]c3c2)CC1 [monohydrate form, 4-amino-5-fluoro-3-[5-(4-methylpiperazin-1-yl)-1H-benzimidazol-2-yl]quinolin-2(1H)-one lactic acid salt]
